The conditions of series [1]: cited from earlier work.
The conditions of series [2]: cited from earlier work. This is another data set of the same source.
The conditions of series [3]: plasma protein binding; cited from earlier work.
Series [4] in a line: intrinsic clearance in rat hepatic microsomes fortified with NADPH. It counts as in vitro ADME. The note with it: OCD3 for OCH3.
Series [5] is described as follows: intrinsic clearance in human hepatic microsomes fortified with NADPH. It counts as in vitro ADME.

By CLint scaled is commonly meant the capacity of the preparation to metabolise the compound, expressed as a volume cleared per time. Low readings indicate greater metabolic stability, high ones faster metabolism.

Consider `O=C(c1ccc(F)c(F)c1)N1CCN2C(=O)c3ccccc3[C@@]12c1ccc(Cl)cc1` [ML375], for which the rat brain fu in series [1] is listed as 0.003. Further, the “brain:plasma Kp” value in series [2] is on record as 1.8. For the same molecule, the human fu in series [3] is reported as 0.013.

`[2H]C([2H])([2H])Oc1ccc([C@@]23c4ccccc4C(=O)N2CCN3C(=O)c2cc(F)c(F)c(F)c2)cc1C` [VU6001005]: the “improvement to rat intrinsic clearance relative to VU6000181” value in series [4] was “negligible improvement”. In series [5] (OCD3 for OCH3), the “reduction of human in vitro intrinsic clearance relative to VU6000181” value is recorded as ~ 5 fold. In series [5] (human, microsomes), this molecule returned a CLint scaled of 72.9 mL/min/kg.
